Data published in patent US20110123988A1, “ANTISENSE COMPOUNDS AND METHODS FOR DIAGNOSTIC IMAGING” (GENESEEN LLC, priority 2003, published 2011).

Test system: cells expressing IGFR1 (murine BALB/c 3T3 cells; p6 cells overexpressing a transfected human IGFR1 gene; human Jurkat cells as negative control)
Assay: Cellular uptake of PNA-peptide conjugates by cells in vitro
Type: cell-based
Settings: versus control PNA Gly-CCGCTTCCTTTC without peptide; measured with both the 14C-conjugate and the fluoresceinyl-conjugate; BALB/c 3T3, p6 and Jurkat cells
Excerpt: To improve cellular uptake of an IGFR1 antisense sequence targeted against IGFR1 mRNA codons 706-709 (CCGCTTCCTTTC, SEQ ID NO:42; Ullrich et al., 1986, EMBO J. 5:10:2503-2512), a PNA with this base sequence was conjugated to a D-amino acid IGF1 peptide having the sequence (Gly)4D(Cys-Ser-Lys-Cys). This peptide binds selectively to the cell surface receptor for insulin-like growth factor 1 (IGFR1), which is overexpressed on malignant cells (Pietrzkowski et al., 1992, Mol. Cell. Biol. 12:9:3883-3889). The same PNA was also conjugated to a control peptide of the sequence (Gly)4D(Cys-Ala-Ala-Cys), which is not expected to bind to cells expressing IGFR1. The IGF1 D-peptide and control peptide was assembled on (4-methyl benzhydrypamine (MBHA) resin, and then the PNA was extended as a continuation of the peptide. The IGF1 peptide and control peptide sequences were radiolabeled with ^14C or fluorescently labeled with fluorescein isothiocyanate (Basu & Wickstrom, 1997, Bioconj. Chem. 8:4:481-488).

## Gly-CCGCTTCCTTTC-(Gly)4D(CysSerLysCys) (PNA, Gly, (Gly)4, D-peptide, 14C or fluorescein label, chemistry not fully specified) [labeled with 14C or fluorescein]
  cellular uptake: much higher uptake than the control Gly-CCGCTTCCTTTC, but only in cells expressing IGFR1
